What was measured:
Assay type in all cases: biochemical
Caspase-1 = Caspase-1 (Homo sapiens (Human), UniProt P29466); assay: Caspase-1 assay, inhibition of caspase activity (Ac-YVAD-pNA substrate); details: human caspase-1, Ac-YVAD-pNA 200 μM, read at 405 nm
Procedure: (§1) Assay for the Inhibition of Caspase Activity and Determination of IC50 Values
(§2) Human caspases were purchased from Enzo Biosciences and used according to the manufacturer's instructions. An exemplary caspase assay, for Caspase-1, is provided below:
Caspase-1 was diluted to 10 U/μl in assay buffer consisting of 50 mM HEPES, pH 7.4, 100 mM NaCl, 0.1% CHAPS, 1 mM EDTA, 10% glycerol and 10 mM DTT.
45 μl of assay buffer was added into ½ volume microtiter plate. The plate was allowed to equilibrate to assay temperature. 5 μl of Caspase-1 (10 U/μl) was added to each appropriate well. Two 2 blank wells containing just assay buffer without Caspase-1 were included on the plate.
The reaction was started by the addition of 50 μl Ac-YVAD-pNA substrate, for a final substrate concentration of 200 μM. The reaction was continuously monitored at 405 nm.
(§3) The data was graphed as OD405 nm vs time, and the slope was determined over the linear portion of the curve. The rates in OD/min were converted to substrate/min using an extinction coefficient for p-nitroaniline of 10,500 M-1 cm-1, and were adjusted for pathlength of sample. Similarly assays were conducted for Caspase-3, Caspase-8 and Caspase-9. The Table below provides a summary of the binding data for the compounds prepared according to Examples 1-4: […]

Caspase-3 = Caspase-3 (Homo sapiens (Human), UniProt P42574); assay: Caspase-3 assay, inhibition of caspase activity; details: human caspase-3
Procedure: as §1, §2, §3

Caspase-8 = Caspase-8 (Homo sapiens (Human), UniProt Q14790); assay: Caspase-8 assay, inhibition of caspase activity; details: human caspase-8
Procedure: as §1, §2, §3

Caspase-9 = Caspase-9 (Homo sapiens (Human), UniProt P55211); assay: Caspase-9 assay, inhibition of caspase activity; details: human caspase-9
Procedure: as §1, §2, §3

Chain of Caspase-3 (P42574 29-175): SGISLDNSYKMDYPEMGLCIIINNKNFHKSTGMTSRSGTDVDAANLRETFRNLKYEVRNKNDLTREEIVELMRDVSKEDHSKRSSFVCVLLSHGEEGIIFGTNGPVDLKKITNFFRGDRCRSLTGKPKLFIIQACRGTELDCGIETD
Chain of Caspase-3 (P42574 176-277): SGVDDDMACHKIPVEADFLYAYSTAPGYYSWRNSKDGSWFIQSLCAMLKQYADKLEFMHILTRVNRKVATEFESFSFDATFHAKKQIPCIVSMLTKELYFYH
Chain of Caspase-1 (P29466 120-297): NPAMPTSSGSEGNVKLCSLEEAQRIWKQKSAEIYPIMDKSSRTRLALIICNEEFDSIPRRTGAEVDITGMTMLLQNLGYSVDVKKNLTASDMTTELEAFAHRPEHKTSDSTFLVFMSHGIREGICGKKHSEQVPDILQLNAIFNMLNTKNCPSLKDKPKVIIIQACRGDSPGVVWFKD
Chain of Caspase-1 (P29466 317-404): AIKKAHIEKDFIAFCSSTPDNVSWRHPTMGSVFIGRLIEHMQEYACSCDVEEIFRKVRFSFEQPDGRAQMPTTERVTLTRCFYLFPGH
Chain of Caspase-9 (P55211 1-315): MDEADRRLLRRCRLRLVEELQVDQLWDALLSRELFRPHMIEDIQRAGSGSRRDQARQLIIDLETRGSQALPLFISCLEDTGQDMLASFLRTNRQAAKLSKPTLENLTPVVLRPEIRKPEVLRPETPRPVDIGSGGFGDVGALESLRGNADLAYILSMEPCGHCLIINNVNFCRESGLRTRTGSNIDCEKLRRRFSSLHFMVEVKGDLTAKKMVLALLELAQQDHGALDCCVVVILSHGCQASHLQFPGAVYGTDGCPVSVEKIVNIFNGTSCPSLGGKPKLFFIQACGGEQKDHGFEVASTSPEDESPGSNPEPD
Chain of Caspase-9 (P55211 331-416): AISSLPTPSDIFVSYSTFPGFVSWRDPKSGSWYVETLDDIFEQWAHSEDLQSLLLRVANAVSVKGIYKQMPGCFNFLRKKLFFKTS
Chain of Caspase-8 (Q14790 217-374): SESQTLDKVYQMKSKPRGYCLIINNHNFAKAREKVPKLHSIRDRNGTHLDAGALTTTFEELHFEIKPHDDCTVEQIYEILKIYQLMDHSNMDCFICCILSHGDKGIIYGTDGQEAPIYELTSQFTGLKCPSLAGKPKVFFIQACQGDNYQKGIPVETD
Chain of Caspase-8 (Q14790 385-479): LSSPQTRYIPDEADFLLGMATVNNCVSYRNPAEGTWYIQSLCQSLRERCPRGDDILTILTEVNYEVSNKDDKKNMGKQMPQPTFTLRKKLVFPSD

Compound | IC50 (Caspase-1) [nM] | IC50 (Caspase-3) [nM] | IC50 (Caspase-8) [nM] | IC50 (Caspase-9) [nM]
O=C(O)C[C@H](NC(=O)CN1CCN(Cc2ccccc2)C(=O)C1)C(=O)COc1ccnc(C(F)(F)F)n1 [Example 3, (S)-3-(2-(4-Benzyl-3-oxopiperazin-1-yl)acetamido)-4-oxo-5-((2-(trifluoromethyl)pyrimidin-4-yl)oxy)pentanoic acid] | 65 | 1000 | 396 | 1000
O=C(O)C[C@H](NC(=O)CN1CCN(Cc2ccccc2)CC1=O)C(=O)COc1c(F)c(F)cc(F)c1F [Example 2, (S)-3-(2-(4-Benzyl-2-oxopiperazin-1-yl)acetamido)-4-oxo-5-(2,3,5,6-tetrafluorophenoxy)pentanoic acid] | 4 | 32 | 28 | 38
O=C(O)C[C@H](NC(=O)CN1CCN(Cc2ccccc2)C(=O)C1)C(=O)COc1c(F)c(F)cc(F)c1F [Example 1, (S)-3-(2-(4-Benzyl-3-oxopiperazin-1-yl)acetamido)-4-oxo-5-(2,3,5,6-tetrafluorophenoxy)pentanoic acid] | 9 | 132 | 132 | 122
O=C(O)C[C@H](NC(=O)CN1CCN(S(=O)(=O)c2ccccc2)CC1)C(=O)COc1c(F)c(F)cc(F)c1F [Example 4, (S)-4-oxo-3-(2-(4-(phenylsulfonyl)piperazin-1-yl)acetamido)-5-(2,3,5,6-tetrafluorophenoxy)pentanoic acid] | 2 | 200 | 1 | 107
